This assay has as its target T1, IGF-1R Ba/F3 (Homo sapiens, UniProt P08069).
T1 construct: fused on or other part: TEL- (or BCR-) IGF-1R in Ba/F3: the kinase part holds the site
Kind of assay: Ba/F3 Cell Viability Inhibition Assay (IGF-1R Ba/F3). The conditions noted are these: Tel-TK transformed Ba/F3 cells, 48 hours, Britelite luminescence. Type of assay: cell-based, murine. The source says: The IC50 of a drug may be determined constructing a dose-response curve and examining the effect of different concentrations of antagonist on reversing agonist activity. IC50 values may be calculated for a given antagonist by determining the concentration needed to inhibit half of the maximum biological response of the agonist. To calculate IC50 values, a series of dose-response data (e.g., drug concentrations x1, x2, . . . , xn and growth inhibition y1, y2, . . . , yn, the values of y are in the range of 0-1) is generated. IC50 values may be determined by a computer-aided system using the formula: y=D+((A−D)/(1+10^(x-log(IC50)B) • where A is the ratio of growth inhibition between lowest drug concentration and control; B is the slope of sigmoidal curvel; and D is the ratio of growth inhibition between highest drug concentration and control.
Ba/F3 is a murine IL-3-dependent pro-B lymphoma cell line. Parental Ba/F3 cells are used to generate a panel of sublines whose proliferation and survival is rendered IL-3-independent by stable transduction with individual tyrosine kinases activated by fusion with the amino-terminal portion of TEL (amino acid 1-375) or BCR. In order to generate Ba/F3 cell lines transformed by Tel-Tyrosine Kinase (TK) fusions, parental Ba/F3 cells are infected with a retrovirus harboring each TEL-fusion kinase and subjected to puromycin selection and IL-3 withdrawal to obtain IL-3-independent, transformed Ba/F3 cells.
Each transformed Ba/F3 cells are cultured in RPMI-1640 media (Gibco Cat #11875093, Carlsbad, Calif.) supplemented with 10% FBS (Hyclone Cat #SV30014.03, Logan, Utah), 4.5 g/L glucose (Sigma #G5400, St. Louis, Mo.), 1.5 g/L sodium bicarbonate (Biowhittaker #17-613E, Walkersville, Md.) and Pen/Strep (Gibco #10378-016, Carlsbad, Calif.). Cells are splitted twice weekly.
The potency of test compounds against various Tel-TK transformed Ba/F3 lines is determined as follows. Exponentially growing BaF3 Tel-TK cells are diluted in fresh medium to 75,000 cells/mL and seeded into 384-well plates (3750 cells/well) at 50 μL/well using a μFill liquid dispenser (BioTek, Winooski, Vt., USA). Duplicate plates are run for each cell line. Test and control compounds are serially diluted with DMSO and arrayed in a polypropylene 384-well plate. […] of compound is transferred into the assay plates using a pin-transfer device, and the plates are incubated at 37° C. (5% CO2) for 48 hours. 25 μL Britelite (Perkin Elmer) is added and luminescence is quantified using Analyst GT (Molecular Devices). Custom curve-fitting software is used to produce a logistic fit of percent cell viability as a function of the logarithm of inhibitor concentration. The IC50 is interpolated as the concentration of compound needed to reduce cell viability to 50% of a DMSO control. Parental Ba/F3 cells that are maintained and cultured in presence of IL-3 (1 ng/ml in final) are diluted in fresh medium containing IL-3 (1 ng/ml in final) to 75,000 cells/mL following the same procedure as described above.
T1 sequence (P08069 999-1274 limits assumed): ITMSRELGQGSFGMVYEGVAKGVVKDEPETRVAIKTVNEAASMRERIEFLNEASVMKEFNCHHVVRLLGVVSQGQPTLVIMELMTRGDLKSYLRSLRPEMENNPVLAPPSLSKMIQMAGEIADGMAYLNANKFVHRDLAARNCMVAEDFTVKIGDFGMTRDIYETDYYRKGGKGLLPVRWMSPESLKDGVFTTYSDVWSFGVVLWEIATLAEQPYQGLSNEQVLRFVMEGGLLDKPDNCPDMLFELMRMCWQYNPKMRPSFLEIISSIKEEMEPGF
Turning to `Cc1cc(Nc2nc(Nc3cc(C)c(C4CCN(CC(N)=O)CC4)cc3C)ncc2Cl)n[nH]1` [Compound 37, 2-(4-(4-(5-chloro-4-(5-methyl-1H-pyrazol-3-ylamino)pyrimidin-2-ylamino)-2,5-dimethylphenyl)piperidin-1-yl)acetamide], the IC50 worked out at 0.013 µM. The same measure for `Cc1cc(Nc2nc(Nc3cc(C)c(C4CCN(C(=O)CCN(C)C)CC4)cc3F)ncc2Cl)n[nH]1` [Compound 78, 1-(4-(4-(5-chloro-4-(5-methyl-1H-pyrazol-3-ylamino)pyrimidin-2-ylamino)-5-fluoro-2-methylphenyl)piperidin-1-yl)-3-(dimethylamino)propan-1-one]: 0.138 µM. In turn, `Cc1cc(Nc2nc(Nc3cc(C)c(C4CCN(CC#N)CC4)cc3F)ncc2Cl)n[nH]1` [Compound 199, 2-(4-(4-(5-chloro-4-(5-methyl-1H-pyrazol-3-ylamino)pyrimidin-2-ylamino)-5-fluoro-2-methylphenyl)piperidin-1-yl)acetonitrile] displayed an IC50 of 0.077 µM. The figure for `Cc1cc(Nc2nc(Nc3cc(C)c([C@H]4CCN[C@H](C)C4)cc3F)ncc2Cl)n[nH]1` (relative stereo) [Compound 279, 5-chloro-N2-(2-fluoro-5-methyl-4-((trans)-2-methylpiperidin-4-yl)phenyl)-N4-(5-methyl-1H-pyrazol-3-yl)pyrimidine-2,4-diamine] is 0.064 µM. Take `COc1cc(Nc2ncc(Cl)c(Nc3cc(C)[nH]n3)n2)c(C)cc1C1CCN(C(=O)CN(C)C)CC1` [Compound 76, 1-(4-(4-(5-chloro-4-(5-methyl-1H-pyrazol-3-ylamino)pyrimidin-2-ylamino)-2-methoxy-5-methylphenyl)piperidin-1-yl)-2-(dimethylamino)ethanone]: half-maximal inhibition (IC50) was put at 0.009 µM. The same measure for `Cc1cc(Nc2nc(Nc3cc(C)c(C4CCN(C(C)C(=O)O)CC4)cc3F)ncc2Cl)n[nH]1` (stereo not drawn) [Compound 54, 2-(4-(4-(5-chloro-4-(5-methyl-1H-pyrazol-3-ylamino)pyrimidin-2-ylamino)-5-fluoro-2-methylphenyl)piperidin-1-yl)propanoic acid]: 1.53 µM; for `Cc1cc(Nc2nc(Nc3cc(C)c(C4CCN(C(=O)C(C)N)CC4)cc3F)ncc2Cl)n[nH]1` (stereo not drawn) [Compound 86, 2-amino-1-(4-(4-(5-chloro-4-(5-methyl-1H-pyrazol-3-ylamino)pyrimidin-2-ylamino)-5-fluoro-2-methylphenyl)piperidin-1-yl)propan-1-one]: 0.141 µM; for `Cc1cc(C2CCNCC2)c(C)cc1Nc1ncc(Cl)c(Nc2cc(C(F)(F)F)[nH]n2)n1` [Compound 215, 5-chloro-N2-(2,5-dimethyl-4-(piperidin-4-yl)phenyl)-N4-(5-(trifluoromethyl)-1H-pyrazol-3-yl)pyrimidine-2,4-diamine]: 0.047 µM. The same measure for `Cc1cc(Nc2nc(Nc3cc(Cl)c(C4CCN(C(=O)CN5CCOCC5)CC4)cc3C)ncc2Cl)n[nH]1` [Compound 95, 1-(4-(2-chloro-4-(5-chloro-4-(5-methyl-1H-pyrazol-3-ylamino)pyrimidin-2-ylamino)-5-methylphenyl)piperidin-1-yl)-2-morpholinoethanone]: 0.006 µM; for `Cc1cc(Nc2nc(Nc3cc(C)c(C4CCN(S(C)(=O)=O)CC4)cc3F)ncc2Cl)n[nH]1` [Compound 62, 5-Chloro-N2-(2-fluoro-5-methyl-4-(1-(methylsulfonyl)piperidin-4-yl)phenyl)-N4-(5-methyl-1H-pyrazol-3-yl)pyrimidine-2,4-diamine]: 0.005 µM. The figure for `CNCC(=O)N1CCC(c2cc(F)c(Nc3ncc(Cl)c(Nc4cc(C)[nH]n4)n3)cc2C)CC1` [Compound 80, 1-(4-(4-(5-chloro-4-(5-methyl-1H-pyrazol-3-ylamino)pyrimidin-2-ylamino)-5-fluoro-2-methylphenyl)piperidin-1-yl)-2-(methylamino)ethanone] is 0.103 µM; for `Cc1cc(Nc2nc(Nc3cc(C)c(C4CNC4)cc3C)ncc2Cl)n[nH]1` [Compound 237, N2-(4-(azetidin-3-yl)-2,5-dimethylphenyl)-5-chloro-N4-(5-methyl-1H-pyrazol-3-yl)pyrimidine-2,4-diamine] it is 0.41 µM; for `Cc1cc(Nc2nc(Nc3cc(C)c(C4CCN(C(C)C(N)=O)CC4)cc3F)ncc2C(F)(F)F)n[nH]1` (stereo not drawn) [Compound 53, 2-(4-(5-fluoro-2-methyl-4-(4-(5-methyl-1H-pyrazol-3-ylamino)-5-(trifluoromethyl)pyrimidin-2-ylamino)phenyl)piperidin-1-yl)propanamide] it is 0.078 µM. Compound `Cc1cc(Nc2nc(Nc3cc(C)c(C4CCN(C=O)CC4)cc3F)ncc2Cl)n[nH]1` [Compound 206, 4-(4-(5-chloro-4-(5-methyl-1H-pyrazol-3-ylamino)pyrimidin-2-ylamino)-5-fluoro-2-methylphenyl)piperidine-1-carbaldehyde] showed an IC50 of 0.03 µM. On to `Cc1cc(Nc2nc(Nc3cc(C)c(C4CCN(C5CCOCC5)CC4)cc3C)ncc2Cl)n[nH]1` [Compound 252, 5-chloro-N2-(2,5-dimethyl-4-(1-(tetrahydro-2H-pyran-4-yl)piperidin-4-yl)phenyl)-N4-(5-methyl-1H-pyrazol-3-yl)pyrimidine-2,4-diamine], for which the IC50 is 0.014 µM. The same measure for `Cc1cc(Nc2nc(Nc3cc(C)c(C4CCN(Cc5ccccn5)CC4)cc3F)ncc2Cl)n[nH]1` [Compound 281, 5-chloro-N2-(2-fluoro-5-methyl-4-(1-(pyridin-2-ylmethyl)piperidin-4-yl)phenyl)-N4-(5-methyl-1H-pyrazol-3-yl)pyrimidine-2,4-diamine]: 0.087 µM; for `CC(=O)N1CCC(C(=O)N2CCC(c3cc(F)c(Nc4ncc(Cl)c(Nc5cc(C)[nH]n5)n4)cc3C)CC2)CC1` [Compound 114]: 0.048 µM. The figure for `Cc1cc(Nc2nc(Nc3cc(C)c(C4CCN(CCO)CC4)cc3F)ncc2Cl)n[nH]1` [Compound 22, 2-(4-(4-(5-chloro-4-(5-methyl-1H-pyrazol-3-ylamino)pyrimidin-2-ylamino)-5-fluoro-2-methylphenyl)piperidin-1-yl)ethanol] is 0.059 µM; for `Cc1cc(Nc2nc(Nc3cc(C4CCN(C(C)C(N)=O)CC4)c(F)cc3C)ncc2Cl)n[nH]1` (stereo not drawn) [Compound 48, 2-(4-(5-(5-chloro-4-(5-methyl-1H-pyrazol-3-ylamino)pyrimidin-2-ylamino)-2-fluoro-4-methylphenyl)piperidin-1-yl)propanamide] it is 3.68 µM. The same measure for `Cc1cc(Nc2nc(Nc3cc(C)c(C4CCN(CCCS(=O)(=O)N5CCC5)CC4)cc3F)ncc2Cl)n[nH]1` [Compound 243, N2-(4-(1-(3-(azetidin-1-ylsulfonyl)propyl)piperidin-4-yl)-2-fluoro-5-methylphenyl)-5-chloro-N4-(5-methyl-1H-pyrazol-3-yl)pyrimidine-2,4-diamine]: 0.076 µM; for `Cc1cc(Nc2nc(Nc3cc(C)c(C4CCCCN4Cc4c(C)noc4C)cc3C)ncc2Cl)n[nH]1` (stereo not drawn) [Compound 191, 5-chloro-N2-(4-(1-((3,5-dimethylisoxazol-4-yl)methyl)piperidin-2-yl)-2,5-dimethylphenyl)-N4-(5-methyl-1H-pyrazol-3-yl)pyrimidine-2,4-diamine]: 0.113 µM.

What is called IC50 is the concentration needed to halve the response being measured. A high value points to a need for much substance.

The values are drawn from patent publication US8859574B2 (IRM LLC, priority 2008, dated 2014).
